# Test results reported in patent US3949090A, “Methods and compositions for improving feed efficiency in ruminants using dithiooxamide” (SmithKline Corporation, priority 1974, dated 1976).
# Like-named read-outs stand apart in the source and are kept apart here.
# Experiments:
# [1] = system: Microbial Deaminase (strained rumen fluid); experiment: In vitro microbial deaminase inhibition (rumen fluid, alfalfa hay, grain mixture; 4 hours); type: cell-based; conditions: for MDI (%): 240 min
# Protocol: (§1) The in vitro fermentation system contained 75 ml. strained rumen fluid, 200 mg, alfalfa hay, 800 mg. of a crude protein grain mixture, 0.8 to 1.6 mM of each of 10 essential amino acids (threonine, valine, methionine, isoleucine, leucine, phelylalanine, tryptophan, lysine and arginine), and 0 to 50 ppm dithiooxamide. Flasks were incubated for 4 hours with effects upon amino acid deamination assessed as described for the previous system. Using standard chromatographic techniques, effects upon methanogenesis and upon the pattern of volatile fatty acid production were determined.
# (§2) ^1 In vitro fermentation system contained 75 ml. strained rumen fluid
# (§3) 200 mg. alfalfa hay, 800 mg. grain mixture (16% crude protein) and 1.6 mM
# (§4) of each of ten essential amino acids. Flasks were incubated for four
# (§5) 200 mg. alfalfa hay, 800 mg. grain mixture (16% crude protein) and 0.8 mM
# [2] = system: methanogenesis (strained rumen fluid); experiment: In vitro effects upon methanogenesis; type: cell-based
# Protocol: as §1, §2, §3, §4, §5
# [3] = system: volatile fatty acid production (strained rumen fluid); experiment: In vitro volatile fatty acid production; type: cell-based
# Protocol: as §1, §2, §3, §4, §5
# [4] = system: gas production (strained rumen fluid); experiment: In vitro gas production; type: cell-based; conditions: Table III, control 65
# Protocol: as §1, §2, §5, §4
# [5] = system: rumen microbial deamination; experiment: In vivo effects upon amino acid deamination in rumen fistulated cattle; conditions: for Quantity of amino acids in the rumen: per rumen
# Protocol: Rumen fistulated cattle were fed a pelleted 60% concentrate diet. To conduct the test, animals received ruminal doses of a mixture of free amino acids to provide 338 mMoles of total free amino acids (threonine 4.5 g., methionine 6.0 g., isoleucine 5.0 g., leucine 5.0 g., phenylalanine 6.5 g., lysine 7.5 g., histidine 8.5 g.), 50 g. of a soluble rumen marker, polyethylene glycol (PEG) and 0 to 4 g. dithiooxamide. Total amino acid concentration was determined by the procedure of Borchers [Anal. Chem., 31 (7): 1179]. Activity was assessed as changes, with respect to time, of the quantity of total free amino acids in the rumen. Inhibition of rumen microbial deamination results in a greater quantity of free amino acids in the rumen.
# ^1 Polyethylene glycol was used as a marker to estimate rumen volume
# and correct for changes in amino acid concentration due to changes in
# rumen volume during the six hour experiment.
# ^2 mMoles of amino acid per rumen.
# methanogenesis = experiment: In vivo effects upon methanogenesis in cattle; conditions: for Methane Inhibition: 360 kg cattle, at least 7 days
# Source text: Cattle were fed 5 to 7 kg./day of a 70% concentrate ration which was medicated to supply 0 to 2 g. of dithiooxamide per animal daily. After feeding medicated rations for at least 7 days, gas samples were obtained by rumen puncture for chromatographic assay of methane.
# ^1 360 Kg. Cattle fed either 5, 6 or 7 kg./day.
# animals = experiment: Toxicity statement (animals); conditions: when used as described
# [6] = Table III, varying concentrations of cobalt and copper
smiles,measurement,setting,value
"NC(=S)C(N)=S [Dithiooxamide, dithiooxamide]",inhibition at 5 ppm,"[1]; 4 h, Table II, 5 ppm dithiooxamide, 4 h, read-out: MDI (%)",6%
same,inhibition at 10 ppm,"[1]; 4 h, Table II, 10 ppm dithiooxamide, 4 h, read-out: MDI (%)",68%
same,inhibition at 25 ppm,"[1]; 4 h, Table II, 25 ppm dithiooxamide, 4 h, read-out: MDI (%)",65%
same,inhibition at 50 ppm,"[1]; 4 h, Table II, 50 ppm dithiooxamide, 4 h, read-out: MDI (%)",94%
same,inhibition at 25 ppm,"[1]; 4 h, Table III, dithiooxamide 25 ppm, no added cobalt or copper, read-out: MDI (%)",78%
same,inhibition of microbial deamination of amino acids (in words),[1]; Table II,effective inhibitor of microbial deamination of amino acids
same,MDI (%),"[1]; Table III, dithiooxamide 25 ppm + cobalt sulfate .013 ppm",81%
same,MDI (%),"[1]; Table III, dithiooxamide 25 ppm + copper sulfate .333 ppm",90%
same,Deaminase inhibition on adding cobalt and copper (in words),[1]; [6],not affected by adding varying concentrations of cobalt and copper
same,methane production (in words),[2]; Table II,would suppress methane production
same,inhibition at 5 ppm,"[2]; Table II, 5 ppm dithiooxamide, 4 h, read-out: Methane Inhibition (%)",12%
same,inhibition at 10 ppm,"[2]; Table II, 10 ppm dithiooxamide, 4 h, read-out: Methane Inhibition (%)",88%
same,inhibition at 25 ppm,"[2]; Table II, 25 ppm dithiooxamide, 4 h, read-out: Methane Inhibition (%)",96%
same,inhibition at 50 ppm,"[2]; Table II, 50 ppm dithiooxamide, 4 h, read-out: Methane Inhibition (%)",99%
same,Methane Inhibition (%),"[2]; Table III, dithiooxamide 25 ppm + cobalt sulfate .066 ppm",93%
same,inhibition at 25 ppm,"[2]; Table III, dithiooxamide 25 ppm, no added cobalt or copper, read-out: Methane Inhibition (%)",92%
same,methane inhibition on adding cobalt and copper (in words),[2]; [6],not affected by adding varying concentrations of cobalt and copper
same,pattern of volatile fatty acids (in words),[3]; Table II,increased molar percentages of propionate and butyrate at the expense of acetate
same,volatile fatty acid carbon (in words),[3]; Table II,slight decrease in volatile fatty acid carbon
same,"Volatile Fatty Acids (molar distribution, %): Propionate","[3]; Table II, 5 ppm dithiooxamide, 4 h, control 9",10%
same,"Volatile Fatty Acids (molar distribution, %): Butyrate","[3]; Table II, 5 ppm dithiooxamide, 4 h, control 22",24%
same,"Volatile Fatty Acids (molar distribution, %): Acetate","[3]; Table II, 5 ppm dithiooxamide, 4 h, control 69",66%
same,Volatile Fatty Acid Carbon,"[3]; Table II, 5 ppm dithiooxamide, 4 h, control 128",127 μ moles/ml.
same,"Volatile Fatty Acids (molar distribution, %): Propionate","[3]; Table II, 10 ppm dithiooxamide, 4 h, control 9",15%
same,"Volatile Fatty Acids (molar distribution, %): Butyrate","[3]; Table II, 10 ppm dithiooxamide, 4 h, control 22",36%
same,"Volatile Fatty Acids (molar distribution, %): Acetate","[3]; Table II, 10 ppm dithiooxamide, 4 h, control 69",49%
same,Volatile Fatty Acid Carbon,"[3]; Table II, 10 ppm dithiooxamide, 4 h, control 128",108 μ moles/ml.
same,"Volatile Fatty Acids (molar distribution, %): Propionate","[3]; Table II, 25 ppm dithiooxamide, 4 h, control 9",15%
same,"Volatile Fatty Acids (molar distribution, %): Butyrate","[3]; Table II, 25 ppm dithiooxamide, 4 h, control 22",36%
same,"Volatile Fatty Acids (molar distribution, %): Acetate","[3]; Table II, 25 ppm dithiooxamide, 4 h, control 69",49%
same,Volatile Fatty Acid Carbon,"[3]; Table II, 25 ppm dithiooxamide, 4 h, control 128",108 μ moles/ml.
same,"Volatile Fatty Acids (molar distribution, %): Propionate","[3]; Table II, 50 ppm dithiooxamide, 4 h, control 9",15%
same,"Volatile Fatty Acids (molar distribution, %): Butyrate","[3]; Table II, 50 ppm dithiooxamide, 4 h, control 22",38%
same,"Volatile Fatty Acids (molar distribution, %): Acetate","[3]; Table II, 50 ppm dithiooxamide, 4 h, control 69",47%
same,Volatile Fatty Acid Carbon,"[3]; Table II, 50 ppm dithiooxamide, 4 h, control 128",102 μ moles/ml.
same,patterns of volatile fatty acid production (in words),[3]; Table III,Alterations in patterns of volatile fatty acid production were again observed
same,total volatile fatty acid carbon production (in words),[3]; Table III,no effects on total volatile fatty acid carbon production
same,"Volatile Fatty Acids (molar distribution, %): Propionate","[3]; Table III, dithiooxamide 25 ppm + cobalt sulfate .013 ppm, control 15",20%
same,"Volatile Fatty Acids (molar distribution, %): Butyrate","[3]; Table III, dithiooxamide 25 ppm + cobalt sulfate .013 ppm, control 21",39%
same,"Volatile Fatty Acids (molar distribution, %): Acetate","[3]; Table III, dithiooxamide 25 ppm + cobalt sulfate .013 ppm, control 64",41%
same,Volatile Fatty Acid Carbon,"[3]; Table III, dithiooxamide 25 ppm + cobalt sulfate .013 ppm, control 125",127 μ moles/ml.
same,"Volatile Fatty Acids (molar distribution, %): Propionate","[3]; Table III, dithiooxamide 25 ppm + cobalt sulfate .066 ppm, control 15",20%
same,"Volatile Fatty Acids (molar distribution, %): Butyrate","[3]; Table III, dithiooxamide 25 ppm + cobalt sulfate .066 ppm, control 21",37%
same,"Volatile Fatty Acids (molar distribution, %): Acetate","[3]; Table III, dithiooxamide 25 ppm + cobalt sulfate .066 ppm, control 64",43%
same,Volatile Fatty Acid Carbon,"[3]; Table III, dithiooxamide 25 ppm + cobalt sulfate .066 ppm, control 125",133 μ moles/ml.
same,"Volatile Fatty Acids (molar distribution, %): Propionate","[3]; Table III, dithiooxamide 25 ppm + copper sulfate .067 ppm, control 15",21%
same,"Volatile Fatty Acids (molar distribution, %): Butyrate","[3]; Table III, dithiooxamide 25 ppm + copper sulfate .067 ppm, control 21",41%
same,"Volatile Fatty Acids (molar distribution, %): Acetate","[3]; Table III, dithiooxamide 25 ppm + copper sulfate .067 ppm, control 64",38%
same,Volatile Fatty Acid Carbon,"[3]; Table III, dithiooxamide 25 ppm + copper sulfate .067 ppm, control 125",114 μ moles/ml.
same,"Volatile Fatty Acids (molar distribution, %): Propionate","[3]; Table III, dithiooxamide 25 ppm + copper sulfate .333 ppm, control 15",21%
same,"Volatile Fatty Acids (molar distribution, %): Butyrate","[3]; Table III, dithiooxamide 25 ppm + copper sulfate .333 ppm, control 21",38%
same,"Volatile Fatty Acids (molar distribution, %): Acetate","[3]; Table III, dithiooxamide 25 ppm + copper sulfate .333 ppm, control 64",41%
same,Volatile Fatty Acid Carbon,"[3]; Table III, dithiooxamide 25 ppm + copper sulfate .333 ppm, control 125",132 μ moles/ml.
same,"Volatile Fatty Acids (molar distribution, %): Propionate","[3]; Table III, dithiooxamide 25 ppm, no added cobalt or copper, control 15",21%
same,"Volatile Fatty Acids (molar distribution, %): Butyrate","[3]; Table III, dithiooxamide 25 ppm, no added cobalt or copper, control 21",40%
same,"Volatile Fatty Acids (molar distribution, %): Acetate","[3]; Table III, dithiooxamide 25 ppm, no added cobalt or copper, control 64",39%
same,Volatile Fatty Acid Carbon,"[3]; Table III, dithiooxamide 25 ppm, no added cobalt or copper, control 125",119 μ moles/ml.
same,Gas Production,[4]; dithiooxamide 25 ppm + cobalt sulfate .013 ppm,82 cc
same,Gas Production,[4]; dithiooxamide 25 ppm + cobalt sulfate .066 ppm,86 cc
same,Gas Production,[4]; dithiooxamide 25 ppm + copper sulfate .067 ppm,85 cc
same,Gas Production,[4]; dithiooxamide 25 ppm + copper sulfate .333 ppm,83 cc
same,Gas Production,"[4]; dithiooxamide 25 ppm, no added cobalt or copper",85 cc
same,Quantity of amino acids in the rumen,"[5]; 0.5 g dithiooxamide ruminal dose, 0 h after dosing, control 338",338 mmol
same,Quantity of amino acids in the rumen,"[5]; 0.5 g dithiooxamide ruminal dose, 3 h after dosing, control 152",192 mmol
same,Quantity of amino acids in the rumen,"[5]; 0.5 g dithiooxamide ruminal dose, 6 h after dosing, control 47",78 mmol
same,Quantity of amino acids in the rumen,"[5]; 1.0 g dithiooxamide ruminal dose, 0 h after dosing, control 338",338 mmol
same,Quantity of amino acids in the rumen,"[5]; 1.0 g dithiooxamide ruminal dose, 3 h after dosing, control 152",198 mmol
same,Quantity of amino acids in the rumen,"[5]; 1.0 g dithiooxamide ruminal dose, 6 h after dosing, control 47",162 mmol
same,Quantity of amino acids in the rumen,"[5]; 2.0 g dithiooxamide ruminal dose, 0 h after dosing, control 338",338 mmol
same,Quantity of amino acids in the rumen,"[5]; 2.0 g dithiooxamide ruminal dose, 3 h after dosing, control 152",209 mmol
same,Quantity of amino acids in the rumen,"[5]; 2.0 g dithiooxamide ruminal dose, 6 h after dosing, control 47",218 mmol
same,Quantity of amino acids in the rumen,"[5]; 4.0 g dithiooxamide ruminal dose, 0 h after dosing, control 338",338 mmol
same,Quantity of amino acids in the rumen,"[5]; 4.0 g dithiooxamide ruminal dose, 3 h after dosing, control 152",270 mmol
same,Quantity of amino acids in the rumen,"[5]; 4.0 g dithiooxamide ruminal dose, 6 h after dosing, control 47",308 mmol
same,prevention of degradation of free amino acids in the rumen (in words),[5]; Table IV,effective agent in preventing his degradation and increasing the size of the pool of amino acids in the rumen
same,Methane Inhibition,methanogenesis; 1.0 g./day dithiooxamide in feed,51
same,Methane Inhibition,methanogenesis; 2.0 g./day dithiooxamide in feed,85
same,Methane Inhibition,methanogenesis; .5 g./day dithiooxamide in feed,25
same,antimethanogenic activity (in words),methanogenesis; Table V,verified the antimethanogenic activity
same,toxicity (in words),animals,relatively nontoxic
